Entries after “also recorded” stand apart in the source; their conditions may differ. Ends that are not written are not given here.
Legend:
Assay type in all cases: cell-based, mouse
[1] = system: TLR4 signaling (LPS-induced phosphorylation of ERK, JNK, p38); experiment: LPS-stimulated activation of MAPKs (pERK, pJNK, pP38), Western blot; conditions: for effect on LPS-induced activation of ERK, cells preincubated with peptides only for 30 minutes: FIG. 5 and 7, 30 min preincubation; for effect on LPS-induced activation of ERK, cells preincubated with peptides only for 30 minutes / inhibition of LPS-induced activation of ERK / effect on LPS-induced activation (phosphorylation) of MAPKs (ERK, JNK): LPS 10 ng/ml; for inhibition of LPS-induced activation of ERK / effect on LPS-induced activation of p38: 40 μM BP; for effect on LPS-induced activation (phosphorylation) of MAPKs (ERK, JNK): 40 μM, 1 h preincubation; for inhibition of phosphorylation of ERK whether or not 100-fold excess LPS was used: peptide increased from 10 μM to 40 μM, LPS 10 ng/nl or 1 μg/ml
Procedure: (§1) FIG. 2. Effect of blocking peptides on the LPS-stimulated activation of MAPKs and Tyr701 STAT-1. Ten μg of total protein was loaded per lane. A representative blot of three separate experiments is shown. Other details are given in the Materials and Methods section and legend for FIG. 1.
(§2) FIG. 4. Comparative effect of BPs on TLR2-vs. TLR4-mediated activation of MAPKs (A) and IL-1β mRNA expression (B). For Western blot analysis, 4.5 x10^6 primary macrophages were preincubated without or with 40 μM BP and stimulated for 30 min with LPS (10 ng/ml) or Pam3Cys (P3C; 150 ng/ml). The results shown are a representative blot of three separate experiments. Experimental details for FIG. 4B are the same as reported in the legend to FIG. 1A.
FIG. 5. Effect of mutated TRAM BB loop peptides on LPS-induced activation of ERK. Details of the experiment are as in legend for FIG. 4, except for the cells were preincubated with peptides only for 30 minutes.
(§3) SDS-PAGE and Western blot analysis were performed as described previously (Medvedev et al., 2001, J. Immunol. 167, 2257) with minor modifications. Antibodies for detection of activated MAPKs (pERK, pJNK and pP38) were purchased from Cell Signaling Technology (Beverly, Mass.). IRF-1 was detected using a rabbit polyclonal antibody from Santa-Cruz (Santa Cruz, Calif.). Antibody for detection of tyrosine-701 phosphorylated STAT1 was purchased from Zymed Laboratories (San Francisco, Calif.).
Using antibodies specific for the phosphorylated (activated) forms of JNK, ERK, and p38, we next sought to examine the effect of BB-loop-containing inhibitory peptides on LPS-stimulated activation of MAPKs. LPS induces quick and transient activation of MAPKs in primary macrophages (FIG. 2A) that was not affected by the addition of CP. […] The TIRAP BP was the weakest BP; all MAPKs were activated in the presence of it, although to a lesser extent when compared to CP.

[2] = system: TLR4 signaling (LPS-induced IL-1β, MIP-1β, IFN-β, RANTES mRNA); experiment: LPS-induced gene expression in primary murine macrophages, real-time PCR; conditions: for effect on induction of IL1-β and IFN-β mRNA (cytokine induction) by LPS: 30 min preincubation with peptide; for inhibitory effect on LPS-induced expression of IL-1β, MIP-1β, IFN-β and RANTES mRNA: 40 μM BP, 1 h preincubation, 10 ng/ml LPS, mRNA 1 h after LPS
Procedure: FIG. 1. Effect of blocking peptides on the cytokine induction by LPS. Thioglycollate-elicited primary murine macrophages were preincubated in the presence of 40 μMof BP for one hour before stimulation with 10 ng/ml of LPS. (A) Quantitative real-time PCR analysis of gene expression. (B) Secretion of IL-1β and IL-6. Concentration of the cytokines was measured after overnight incubation of the cells in the presence of LPS and the peptides. (C) Sensitivity of the LPS-stimulated expression of IFN-β and IL-1β mRNA to varying concentrations of TRAM and MyD88 BP. Total mRNA was isolated 1 hour after LPS stimulation (A and C). *p<0.05; **p<0.01.
FIG. 6. Effect of mutant TRAM BB loop peptides on LPS-induced activation of IL1-β and IFN-β mRNA. Details of the experiments are as described in the legend for FIG. 1, except for the cells were preincubated with peptides only for 30 minutes.
C3H/OuJ mice were purchased from the Jackson Laboratory (Bar Harbor, Me.). Thioglycollate-elicited peritoneal macrophages were harvested and cultured in the presence of E. coli K235 LPS or Pam3Cys as described previously (Salkowski et al., 1999, J. Immunol. 164, 1529).
(§4) Total cellular RNA was extracted from macrophage cultures as described elsewhere and reversed transcribed using AMV Reverse Transcriptase (Promega, Madison, Wis.) and poly-T priming as recommended by the manufacturer. The resulting cDNA was quantified by real time PCR using SYBR Green PCR Master Mix (Applied Biosystems) and ABI Prism 7900HT cycler. Primers for detection of IL-1β, IFN-β, MIP-1β, […]RANTES, and HPRT mRNAs were designed using the Primer Express 2.0 program (Applied Biosystems). Relative gene expression was calculated using ΔCt method with HPRT as a housekeeping gene (1.8̂(CtHPRT−CtGene)) Statistical analysis was performed by one way ANOVA with repeated measures, followed by Dunnett's multiple comparison post hoc test with p≦0.05 chosen as the level of significance.
Mice with targeted mutations in MyD88 (Kawai et al., 2001, supra; Toshchakov et al., 2002, supra) or TIRAP (Yamamoto et al., 2002, Nature 420, 324) retain the capacity to signal through the MyD88-independent pathway. […] Therefore, the first question we sought to address experimentally is whether interactions of the BB-loops of the TIR domains of these adapters affect protein interactions leading to gene expression. To this end, we designed cell permeable peptides whose sequences correspond to the BB-loops of each adapter molecule and measured the ability of each BP to interfere with the induction of immediate response genes induced via MyD88-dependent and independent pathways. […] All BB-loop-containing peptides exerted an inhibitory effect on LPS-induced expression of MyD88-dependent IL-1β and […], as well as MyD88-independent IFN-β and RANTES mRNA, as measured by real-time PCR (FIG. 1A).

[3] = system: TLR2 signaling (Pam3Cys-induced phosphorylation of ERK, JNK, p38); experiment: Pam3Cys-induced activation of MAPKs, Western blot; conditions: for effect on P3C-induced activation (phosphorylation) of ERK / effect on P3C-induced activation of p38: 40 μM; for effect on P3C-induced activation (phosphorylation) of ERK: P3C 150 ng/ml
Procedure: as §2, §3
Apart from the use of a CP, we sought to analyze further the specificity of the inhibitory effects of BB-loop peptides on TLR signaling. Therefore, we also tested the effect of the peptides on signal transduction elicited from TLR2.

[4] = system: TLR2 signaling (Pam3Cys-induced IL-1β mRNA); experiment: Pam3Cys-induced cytokine mRNA expression, real-time PCR
Procedure: as §2, §4
Similar to their effect on activation of MAPKs, BPs were much weaker inhibitors with respect to Pam3Cys- vs. LPS-induced expression of IL-1β mRNA.

[5] = system: TLR4 signaling (IRF-3 dimerization); experiment: LPS-induced dimerization of IRF-3, native PAGE; conditions: 100 ng/ml LPS, 1.5 hr
Procedure: (§5) FIG. 3. Effect of blocking peptides on activation of IRF-3 and IRF-1. […] Primary mouse macrophages were stimulated with 100 ng/ml of LPS. Seventeen μg of total protein was loaded per lane of the native gel. Other details are as described in the legend for FIG. 1.
Native PAGE for detection of IRF-3 activation was performed with minor modifications (Iwamura et al., 2001, Genes Cells 6, 375). One×10^7 thioglycollate-elicited cells were plated into a 6 cm dish and washed with PBS to remove non-adherent cells. Primary macrophages were stimulated with 100 ng/ml of LPS for 1.5 hr and lysed in buffer containing 50 mM TRIS-HCl pH 7.5, 150 mM NaCl, 1 mM EDTA, 1% NP-40, 1 mM sodium orthovanadate and 1× Complete protease inhibitor cocktail (Roche, Mannheim, Germany). Lysates were mixed with native lysis buffer (Bio-Rad, Hercules, Calif.) supplemented with 1% deoxycholate. Fifteen to 20 μg protein per lane was electrophoresed on a non-reducing gel and immunoblotted. IRF-3 dimers and monomers were detected using rabbit anti-IRF-3 antibody (Zymed Laboratories) by Western analysis.
Interferon Regulatory Factors (IRFs) were first identified as important transcriptional mediators of the antiviral immune response (reviewed in Taniguchi et al., 2001, Annu. Rev. Immunol. 19, 623). Later, it was recognized that this family of transcription factors plays an essential role in signal transduction mediated by different TLRs. IRF-1 is regulated transcriptionally by signaling from different TLRs, as well as by cytokines induced by TLR engagement (e.g., IL-1, TNF, and IFN-β) (Fujita et al., 1989, Proc. Natl. Acad. Sci. USA 86, 9936). In contrast, IRF-3 is constitutively expressed in many cell types (Au et al., 1995, Proc. Natl. Acad. Sci. USA 92, 11675). Upon stimulation through TLR4 or TLR3, IRF-3 is phosphorylated at multiple sites in its C-terminus, and this modification enables it to dimerize and translocate to the nucleus where it targets IRF-3-responsive genes (Kawai et al., 2001, supra; Lin et al., 1999, Mol. Cell. Biol. 19, 2465).

[6] = system: TLR4 signaling (IRF-1 protein); experiment: LPS-induced upregulation of IRF-1 protein, SDS-PAGE/Western; conditions: 100 ng/ml LPS, 1.5 h
Procedure: as §5, §3
Importantly, MyD88 knockout macrophages are capable of inducing IRF-1 mRNA (Yamamoto et al., 2003, supra).

[7] = system: TLR4 signaling (LPS-induced STAT-1 phosphorylation); experiment: LPS-induced phosphorylation of STAT-1, Western blot; conditions: 40 μM BP
Procedure: as §1, §3

[8] = listed as Antennapedia DD loop peptide

| Sequence | effect on induction of IL1-β and IFN-β mRNA (cytokine induction) by LPS [2] | effect on P3C-induced cytokine induction [4] | effect on LPS-induced activation (phosphorylation) of MAPKs (ERK, JNK) [1] | inhibition of LPS-induced dimerization of IRF-3 [5] | effect on LPS-induced upregulation of IRF-1 protein [6] | inhibition of LPS-induced Tyr701 phosphorylation of STAT-1 [7] | inhibition of phosphorylation of ERK whether or not 100-fold excess LPS was used [1] | inhibitory effect on LPS-induced expression of IL-1β, MIP-1β, IFN-β and RANTES mRNA [2] | further results |
| --- | --- | --- | --- | --- | --- | --- | --- | --- | --- |
| IVFAAMPCGRLHLQ [E/A mutant] | did not affect considerably inhibitory capacity |  |  |  |  |  |  |  | effect on LPS-induced activation of ERK, cells preincubated with peptides only for 30 minutes [1]: did not affect considerably inhibitory capacity |
| KYKAMKKDFPSILR [MyD88 DD loop peptide] | not inhibitory | not inhibitory |  |  |  |  |  |  | effect on P3C-induced activation (phosphorylation) of ERK [3]: not inhibitory; effect on P3C-induced activation (phosphorylation) of ERK [3, 8]: does not inhibit; effect on LPS-induced activation of ERK, cells preincubated with peptides only for 30 minutes [1]: not inhibitory; effect on LPS-induced activation of ERK, cells preincubated with peptides only for 30 minutes [1, 8]: does not inhibit |
| RQIKIWFONRRMKWKKFCEEFQVPGRGELH (RQIKIWFQNRRMKWKKFCEEFQVPGRGELH; TRIF blocking peptide) [TRIF-BP] |  |  | strongly inhibited | significantly inhibited | intermediate efficacy | strongly inhibited |  |  | inhibition of LPS-induced activation of ERK [1]: incomplete |
| RQIKIWFQNRRMKWKKIVFAEMPCGRLHLQ [TRAM-BP] |  |  | strongly blocked | significantly inhibited | strongest inhibitors | strongly inhibited | effectively inhibited | strongest |  |
| RQIKIWFQNRRMKWKKLHERNFVPGKSIVE (TLR1/6 blocking peptide) [TLR1/6-BP] |  |  | affected neither |  |  |  |  |  | inhibition of Pam3Cys-induced phosphorylation of MAPKs ([3]; 40 μM BP, Pam3Cys 150 ng/ml, 30 min): affected neither |
| RQIKIWFQNRRMKWKKLHKRDFVPGKWIID [TLR2-BP] | inhibitory | inhibitory |  |  |  |  | effectively inhibited |  | effect on P3C-induced activation of p38 [3]: did not inhibit; effect on P3C-induced activation (phosphorylation) of ERK ([3]; listed as TLR2 BB peptide): diminished and delayed; also recorded: to some extent; effect on LPS-induced activation of p38 [1]: did not inhibit; inhibition of LPS-induced activation of ERK ([1]; listed as TLR2 BB peptide): potent inhibitors; also recorded: inhibit |
| RQIKIWFQNRRMKWKKLHYRDFIPGVAIAA [TLR4-BP] | inhibitory | inhibitory |  |  |  |  | effectively inhibited |  | effect on P3C-induced activation of p38 [3]: did not inhibit; effect on P3C-induced activation (phosphorylation) of ERK ([3]; listed as TLR4 BB peptide): to a lesser extend; also recorded: to some extent; effect on LPS-induced activation of p38 [1]: did not inhibit; inhibition of LPS-induced activation of ERK ([1]; listed as TLR4 BB peptide): potent inhibitors; also recorded: inhibit |
| RQIKIWFQNRRMKWKKLQLRDAAPGGAIVS (TIRAP blocking peptide) [TIRAP-BP] |  |  | weakest BP | inhibition was not as complete | weakest | did not completely block |  | consistently weakest |  |
| RQIKIWFQNRRMKWKKSLHGRGDPMEAFII (Control peptide - BLAST generated) [reference compound] |  |  | not affected |  | strong upregulation |  |  | not significantly affected | effect on Pam3Cys-induced expression of IL-1β mRNA ([4]; 40 μM, Pam3Cys): not significantly affected |
